From article PMC12196291, “Absolute Configuration and Chiroptical Properties of Flexible Drug Avapritinib” (Pharmaceuticals, 2025)

Molecular target: C-KIT (D816V) (Homo sapiens, UniProt P10721, D816V)
Test: in vitro kinase activity assay (substrate/ATP, 384-well, ELISA-BMG readout), positive control
Type: biochemical

Sequence of C-KIT (D816V) (P10721 546-976 D816V limits assumed): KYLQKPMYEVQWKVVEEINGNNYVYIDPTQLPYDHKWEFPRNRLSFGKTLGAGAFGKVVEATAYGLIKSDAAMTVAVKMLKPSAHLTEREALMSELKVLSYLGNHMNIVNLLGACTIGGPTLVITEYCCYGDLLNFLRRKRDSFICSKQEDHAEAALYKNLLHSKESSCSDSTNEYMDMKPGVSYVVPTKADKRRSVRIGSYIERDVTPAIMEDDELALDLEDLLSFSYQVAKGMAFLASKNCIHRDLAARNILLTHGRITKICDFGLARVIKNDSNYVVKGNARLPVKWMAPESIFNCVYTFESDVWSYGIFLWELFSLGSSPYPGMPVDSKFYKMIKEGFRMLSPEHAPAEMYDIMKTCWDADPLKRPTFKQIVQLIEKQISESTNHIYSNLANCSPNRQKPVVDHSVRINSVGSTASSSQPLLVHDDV

IC50: 26.9 ± 1.51 nM
Compound: S=C(NCc1ccc2c(c1)OCO2)N1CCN(c2ncnc3c2oc2ccccc23)CC1 [Amuvatinib]
